In patent US20050124664A1, “Urea thiadiazole inhibitors of plasminogen activator inhibior-1” (priority 2003, published 2005) one finds melting point data, which are given here for 2 molecules.

The melting point is the temperature of the solid-liquid transition. Molecule `COC(=O)c1cccc(NC(=O)Nc2nnc(-c3cc(Cl)cc(Cl)c3O)s2)c1` [Example 3, 3-{3-[5-(3,5-Dichloro-2-hydroxy-phenyl)-[1,3,4]thiadiazol-2-yl]-ureido}-benzoic Acid Methyl Ester] displayed a melting point of 305 °C.
Then `COC(=O)c1ccc(NC(=O)Nc2nnc(-c3cc(Cl)cc(Cl)c3O)s2)cc1` [Example 4, 4-{3-[5-(3,5-Dichloro-2-hydroxy-phenyl)-[1,3,4]thiadiazol-2-yl]-ureido}-benzoic Acid Methyl Ester], with 330 °C.
